We go through 1 molecule from paper PMC6065180, “An allosteric propofol-binding site in kinesin disrupts kinesin-mediated processive movement on microtubules” (The Journal of Biological Chemistry, 2018).

One assay concerns the target T1, KIF3BB (Mus musculus, UniProt Q61771).
T1 construct: gene Kif3b; KIF3B Met1-Leu369, C-terminal EB1 dimerization motif, TEV site and His8 tag kept; E. coli; engineered homodimer, Mr 48,011 per chain
T1 sequence (Q61771 1-369): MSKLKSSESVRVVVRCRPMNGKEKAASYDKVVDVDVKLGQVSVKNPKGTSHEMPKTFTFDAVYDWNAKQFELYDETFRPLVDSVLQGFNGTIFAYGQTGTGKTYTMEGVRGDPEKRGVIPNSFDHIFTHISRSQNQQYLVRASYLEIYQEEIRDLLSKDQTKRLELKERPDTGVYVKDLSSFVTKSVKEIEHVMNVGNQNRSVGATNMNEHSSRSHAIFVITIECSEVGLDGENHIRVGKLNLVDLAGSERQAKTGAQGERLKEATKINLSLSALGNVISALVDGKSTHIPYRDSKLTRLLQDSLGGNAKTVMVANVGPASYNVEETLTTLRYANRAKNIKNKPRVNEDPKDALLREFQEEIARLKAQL
Description: Qdot single-molecule TIRF motility. As to conditions: 10 μM AziPm; 1 mM MgATP, X-rhodamine microtubules, paclitaxel, 5% DMSO, pH 6.9, 25 °C. It counts as biochemical.

The target in a further assay is T2, KIF3CC (Mus musculus, UniProt O35066).
T2 construct: gene Kif3c; KIF3C Met1-Leu396, C-terminal EB1 dimerization motif, TEV site and His8 tag kept; E. coli; engineered homodimer
T2 sequence (O35066 1-396): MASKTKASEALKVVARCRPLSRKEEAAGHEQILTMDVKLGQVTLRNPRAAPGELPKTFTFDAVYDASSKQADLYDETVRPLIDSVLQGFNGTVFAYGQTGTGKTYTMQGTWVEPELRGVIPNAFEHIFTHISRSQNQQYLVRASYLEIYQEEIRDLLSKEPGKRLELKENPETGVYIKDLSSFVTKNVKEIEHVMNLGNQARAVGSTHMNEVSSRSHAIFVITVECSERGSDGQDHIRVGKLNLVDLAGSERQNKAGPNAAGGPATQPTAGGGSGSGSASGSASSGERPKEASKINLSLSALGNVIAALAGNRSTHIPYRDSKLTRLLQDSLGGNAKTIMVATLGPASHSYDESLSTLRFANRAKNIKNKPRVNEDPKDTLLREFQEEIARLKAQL
Description: Qdot single-molecule TIRF motility. The assay is classed as biochemical. The conditions noted are these: 10 μM AziPm; 1 mM MgATP, X-rhodamine microtubules, paclitaxel, 5% DMSO, pH 6.9, 25 °C.

On to `CC(C)c1ccc(C2(C(F)(F)F)N=N2)cc1O` [AziPm, meta-azipropofol], for which the “% decrease in run length at 10 μM” value on KIF3BB is ~ 50%; at KIF3CC it was ~ 35%.
